Our source for the GI50 and TGI values is PubChem BioAssay (NCI).

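How tested: cells in 96-well plates exposed to compound for 48 hours at five concentrations. Here, GI50 denotes the concentration required for 50% inhibition of growth. TGI: concentration producing complete growth inhibition.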

Among the test systems are 786-0 renal; SK-OV-3 ovarian; NCI-H23 lung; DU-145 prostate; HOP-92 NSCLC; SF-539 CNS; A549 NSCLC; KM12 colon; SK-MEL-2 melanoma; ACHN renal.
Test in all cases: DTP human tumour cell line panel, 48 h

Broadly, the GI50 is the concentration that inhibits growth by half. A word on the TGI: it is the concentration giving total growth inhibition.

Consider `CC/C=C\C/C=C\C[C@H](O)C/C=C1/C(=O)C=C[C@H]1C/C=C\CCC(=O)OC`, for which the GI50 in the test on 786-0 renal is 3.53 µM; in the test on SK-OV-3 ovarian it was more than 8.25 µM; with NCI-H23 lung, 2.06 µM; in the test with DU-145 prostate, 4.95 µM; with HOP-92 NSCLC it was more than 8.25 µM; with SF-539 CNS it was 2.82 µM. Moreover, the GI50 with A549 NSCLC was more than 8.25 µM; with KM12 colon, 2.2 µM; in the test on SK-MEL-2 melanoma, more than 8.25 µM; in the test with ACHN renal it was 3.06 µM. Moreover, the TGI was more than 8.25 µM in the test on 786-0 renal; more than 8.25 µM with SK-OV-3 ovarian; 6.67 µM in the test with NCI-H23 lung; more than 8.25 µM in the test on DU-145 prostate; more than 8.25 µM in the test on HOP-92 NSCLC; more than 8.25 µM in the test on SF-539 CNS. Moreover, the TGI in the test with A549 NSCLC, with KM12 colon, with SK-MEL-2 melanoma and with ACHN renal was more than 8.25 µM each time.

Turning to `N#Cc1cccc(C(=O)c2cnn(-c3ccc(F)cc3)c2N)c1`, the GI50 with 786-0 renal, in the test with SK-OV-3 ovarian, in the test with NCI-H23 lung, with DU-145 prostate, in the test with HOP-92 NSCLC and in the test on SF-539 CNS was more than 25 µM each time. Also, the GI50 was more than 25 µM in the test with A549 NSCLC, more than 25 µM in the test on KM12 colon, 24.4 µM in the test with SK-MEL-2 melanoma and more than 25 µM with ACHN renal. In addition, the TGI with 786-0 renal, in the test with SK-OV-3 ovarian, in the test with NCI-H23 lung, in the test on DU-145 prostate, with HOP-92 NSCLC and in the test with SF-539 CNS was more than 25 µM each time. Also, the TGI in the test with A549 NSCLC, in the test with KM12 colon, in the test on SK-MEL-2 melanoma and in the test with ACHN renal was more than 25 µM each time.

For `O=C(Nc1ccc(Cl)cc1)c1cc2c(cc1O)[nH]c1ccccc12`, the GI50 was 2.76 µM with 786-0 renal; 2.32 µM in the test with SK-OV-3 ovarian; 2.54 µM in the test with NCI-H23 lung; 3.81 µM with DU-145 prostate; 3.18 µM in the test on HOP-92 NSCLC; 2.34 µM in the test on SF-539 CNS. For the same molecule, the GI50 is 2.85 µM with A549 NSCLC, 2.89 µM with KM12 colon, 2.47 µM in the test with SK-MEL-2 melanoma and 3.11 µM with ACHN renal. Also, the TGI amounted to 7.54 µM in the test with 786-0 renal; 6.51 µM in the test with SK-OV-3 ovarian; 9.68 µM in the test on NCI-H23 lung; 13.2 µM in the test with DU-145 prostate; 12.5 µM in the test on HOP-92 NSCLC; 6.04 µM with SF-539 CNS. In addition, the TGI came to 10.3 µM in the test on A549 NSCLC, 7.27 µM in the test with KM12 colon, 6.98 µM in the test on SK-MEL-2 melanoma and 11.1 µM in the test on ACHN renal.

As for `CN(C)c1ccc(C(=O)c2ccc(N(C)C)c(N)c2)cc1N`, the GI50 with 786-0 renal was 9.74 µM; with SK-OV-3 ovarian, 5.57 µM; in the test on NCI-H23 lung, 9.75 µM; with DU-145 prostate, 5.32 µM; with HOP-92 NSCLC it was 1.46 µM; in the test with SF-539 CNS, 3.92 µM. Moreover, the GI50 was 8.4 µM in the test on A549 NSCLC, 0.785 µM in the test on KM12 colon, 4.3 µM with SK-MEL-2 melanoma and 14.8 µM with ACHN renal. The TGI is more than 91.5 µM in the test on 786-0 renal; more than 45 µM in the test with SK-OV-3 ovarian; more than 80.8 µM in the test on NCI-H23 lung; 28.1 µM in the test on DU-145 prostate; more than 70.4 µM with HOP-92 NSCLC; 26.5 µM in the test on SF-539 CNS. For the same molecule, the TGI in the test with A549 NSCLC was more than 100 µM; in the test with KM12 colon, 43.4 µM; in the test on SK-MEL-2 melanoma, more than 100 µM; in the test on ACHN renal, more than 100 µM.

On to `CN(C)C(=S)NN=C(c1ccccn1)c1ccccn1`, for which the GI50 was less than 0.0232 µM with 786-0 renal; 0.0487 µM in the test on SK-OV-3 ovarian; less than 0.01 µM with NCI-H23 lung; 0.232 µM with DU-145 prostate; 0.0425 µM in the test with SF-539 CNS; 0.101 µM with A549 NSCLC. Besides, the GI50 in the test with KM12 colon is 0.046 µM; in the test with SK-MEL-2 melanoma, 0.106 µM; with ACHN renal, less than 0.0108 µM. The TGI in the test on 786-0 renal was 1.26 µM; with SK-OV-3 ovarian, 16.7 µM; in the test with NCI-H23 lung, 16.3 µM; with DU-145 prostate, more than 33.7 µM; with HOP-92 NSCLC, more than 86.6 µM; in the test with SF-539 CNS, 4.64 µM. Further, the total growth inhibition concentration (TGI) with A549 NSCLC was more than 42.8 µM; with KM12 colon, 21.6 µM; with SK-MEL-2 melanoma, 4.2 µM; with ACHN renal, 10.7 µM.

On to `O=C1c2ccccc2-c2c1c1ccc([N+](=O)[O-])cc1c(=O)n2CCNCCCNCCn1c2c(c3ccc([N+](=O)[O-])cc3c1=O)C(=O)c1ccccc1-2`, for which the GI50 in the test on 786-0 renal was 0.0515 µM; with SK-OV-3 ovarian it was 6.75 µM; in the test on NCI-H23 lung, 0.0682 µM; in the test on DU-145 prostate, 0.96 µM; in the test with HOP-92 NSCLC, 0.803 µM; in the test on SF-539 CNS, 0.872 µM. The GI50 in the test on A549 NSCLC was 0.521 µM; in the test with KM12 colon it was 0.172 µM; in the test with SK-MEL-2 melanoma, 4 µM; with ACHN renal, 0.338 µM. Besides, the TGI with 786-0 renal was found to be 2.92 µM; with SK-OV-3 ovarian, 22.9 µM; in the test with NCI-H23 lung, 6.97 µM; in the test with DU-145 prostate it was 21.1 µM; in the test on HOP-92 NSCLC, 4.16 µM; in the test on SF-539 CNS, 6.04 µM. Moreover, the TGI with A549 NSCLC was 17.6 µM; in the test with KM12 colon it was 11.3 µM; in the test with SK-MEL-2 melanoma, 21.7 µM; in the test on ACHN renal, 24.5 µM.

On to `CNC(=O)c1c(NC(=O)c2cccc(C(F)(F)F)c2)sc2c1CCC(=O)C2`, for which the GI50 in the test on 786-0 renal is 0.447 µM; in the test with SK-OV-3 ovarian it was 2.22 µM; in the test with NCI-H23 lung it was 0.318 µM; in the test with DU-145 prostate, 3.22 µM; with HOP-92 NSCLC it was 0.383 µM; in the test on SF-539 CNS it was 0.339 µM. Besides, the GI50 with A549 NSCLC was 0.387 µM; in the test with KM12 colon it was 0.423 µM; in the test on SK-MEL-2 melanoma it was 0.874 µM; in the test with ACHN renal, 0.323 µM. Moreover, the total growth inhibition concentration (TGI) is more than 36.8 µM in the test on 786-0 renal; 8.24 µM with SK-OV-3 ovarian; 7.56 µM in the test with NCI-H23 lung; more than 100 µM in the test with DU-145 prostate; 2.58 µM in the test on HOP-92 NSCLC; 1.67 µM with SF-539 CNS. Further, the total growth inhibition concentration (TGI) with A549 NSCLC was more than 34.3 µM; in the test with KM12 colon, 1.96 µM; in the test with SK-MEL-2 melanoma it was 3.5 µM; in the test on ACHN renal, 1.34 µM.
